A value given as a limit tells only on which side of the number the result lay.

For this assay, the system named is TEAD-dependent transcription. Briefly: TEAD-dependent transcription cell-based reporter assay (MSTO-211H+12XGTIIC luciferase). Details: species or system human. The settings on record: Homo sapiens; MSTO-211H+12XGTIIC reporter cells, 24 hours compound incubation, luminescence normalized to viability; read-out: MSTO-211H GMean IC50 (uM) Cell Assay Reporter Cell Variant: TEAD. The text has this: The human mesothelioma cell line MSTO-211H was stably transfected with a pGL4.21 plasmid containing a synthetic promoter with 12 copies of the GTIIC TEAD response element that drives the expression of a luciferase reporter gene^1 using Lipofectamine transfection reagent (Thermo Fisher). Transfected cells were selected using puromycin and single cell clones expressing this construct (referred to as MSTO-211H+12XGTIIC) were generated by limiting dilution. MSTO-211H cells was characterized by genetic alterations in key components of the Hippo pathway^2, resulting in up-regulation of YAP/TEAD-mediated transcription. […] To evaluate TEAD inhibitors, the MSTO-211H+12XGTIIC cell line was seeded in a 96-well plate in 50 μL of culture media at 1×10^4 cells per well and incubated at 37° C. overnight. Serial dilutions of compounds (in total volume of 50 μL of culture media) were added to the cells and incubated at 37° C. for 24 hours. Each plate included cells treated with DMSO as high controls and cells treated with 20 μM of the reference compound K-975 (a known TEAD inhibitor)^3 as low controls. Cell viability was assayed by the addition of 25 μL of CellTiter-Fluor reagent (Promega) followed by a 30-minute incubation at 37° C. and quantification of the fluorescence signal (Ex400/Em505). Subsequently, luciferase expression was assayed by the addition of 25 μL of ONE-Glo reagent (Promega) followed by a 10-minute incubation at room temperature and quantification of the luminescence signal. The luminescence signal was normalized to the fluorescence signal to correct for any loss in cell viability over the 24-hour compound incubation period. The percentage of inhibition of normalized luminescence signal, indicative of compound-mediated inhibition of TEAD-dependent transcription, at individual compound concentrations relative to high and low controls was calculated. The data were analyzed by using nonlinear regression to generate IC50 values for individual compounds.
A general note: In a reporter assay the amount or activity of a reporter protein is the signal.

Consider `CC(C)C[C@@H](NS(C)(=O)=O)C(=O)N1CCc2c(cccc2-c2ccc(C(F)(F)F)cc2)C1` [O-0139, (R)-N-(4-methyl-1-oxo-1-(5-(4-(trifluoromethyl)phenyl)-3,4-dihydroisoquinolin-2(1H)-yl)pentan-2-yl)methanesulfonamide], for which the IC50 was in the range of 0.001 to 10 µM. In the case of `C[C@@H](Nc1ccccn1)C(=O)N1CCc2cc(-c3ccc(C(F)(F)F)cc3)ccc2C1` [O-0145, (R)-2-(pyridin-2-ylamino)-1-(6-(4-(trifluoromethyl)phenyl)-3,4-dihydroisoquinolin-2(1H)-yl)propan-1-one], the IC50 lay in the range of 0.001 to 10 µM. Under `C[C@@H](NS(C)(=O)=O)C(=O)N1CCc2cc(-c3ccc(C(F)(F)F)cc3)ccc2C1` [O-0161, (R)-N-(1-oxo-1-(6-(4-(trifluoromethyl)phenyl)-3,4-dihydroisoquinolin-2(1H)-yl)propan-2-yl)methanesulfonamide] stands 0.001 to 10 µM; under `C[C@@H](NC(=O)c1ccccn1)C(=O)N1CCc2ccc(-c3ccc(C(F)(F)F)cc3)cc2C1` [O-0177, (R)-N-(1-oxo-1-(7-(4-(trifluoromethyl)phenyl)-3,4-dihydroisoquinolin-2(1H)-yl)propan-2-yl)picolinamide], 0.001 to 10 µM; under `CC(=O)N[C@H](C)C(=O)N1CCc2ccc(-c3ccc(C(F)(F)F)cc3)cc2C1` [O-0182, (R)-N-(1-oxo-1-(7-(4-(trifluoromethyl)phenyl)-3,4-dihydroisoquinolin-2(1H)-yl)propan-2-yl)acetamide], 0.001 to 10 µM.

For `C[C@@H](NS(C)(=O)=O)C(=O)N1CCc2c(cccc2-c2ccc(C(F)(F)F)cc2)C1` [O-0185, (R)-N-(1-oxo-1-(5-(4-(trifluoromethyl)phenyl)-3,4-dihydroisoquinolin-2(1H)-yl)propan-2-yl)methanesulfonamide], the IC50 was in the range of 0.001 to 10 µM. In the case of `C[C@@H](N)C(=O)N1CCc2cc(-c3ccc(C(F)(F)F)cc3)ccc2C1` [O-0186, (R)-2-amino-1-(6-(4-(trifluoromethyl)phenyl)-3,4-dihydroisoquinolin-2(1H)-yl)propan-1-one] it was 0.001 to 10 µM.

As for `C[C@@H](N)C(=O)N1CCc2ccc(-c3ccc(C(F)(F)F)cc3)cc2C1` [O-0187, (R)-2-amino-1-(7-(4-(trifluoromethyl)phenyl)-3,4-dihydroisoquinolin-2(1H)-yl)propan-1-one], the IC50 is 0.001 to 10 µM. For `O=C(c1c[nH]c(C(F)(F)F)n1)N1CCc2ccc(-c3ccc(C(F)(F)F)cc3)cc2C1` [O-0188, (2-(trifluoromethyl)-1H-imidazol-4-yl)(7-(4-(trifluoromethyl)phenyl)-3,4-dihydroisoquinolin-2(1H)-yl)methanone], the IC50 was in the range of 10 to 100 µM. In the case of `CS(=O)(=O)c1nc(C(=O)N2CCc3ccc(-c4ccc(C(F)(F)F)cc4)cc3C2)c[nH]1` [O-0189, (2-(methylsulfonyl)-1H-imidazol-4-yl)(7-(4-(trifluoromethyl)phenyl)-3,4-dihydroisoquinolin-2(1H)-yl)methanone], the IC50 was in the range of 0.001 to 10 µM. With `CS(=O)(=O)c1nc(C(=O)N2CCc3cc(-c4ccc(C(F)(F)F)cc4)ccc3C2)c[nH]1` [O-0190, (2-(methylsulfonyl)-1H-imidazol-4-yl)(6-(4-(trifluoromethyl)phenyl)-3,4-dihydroisoquinolin-2(1H)-yl)methanone], the IC50 was 0.001 to 10 µM.

Regarding `O=C(c1c[nH]c(C(F)(F)F)n1)N1CCc2cc(-c3ccc(C(F)(F)F)cc3)ccc2C1` [O-0191, (2-(trifluoromethyl)-1H-imidazol-4-yl)(6-(4-(trifluoromethyl)phenyl)-3,4-dihydroisoquinolin-2(1H)-yl)methanone], the IC50 fell in the range of 0.001 to 10 µM. Under `O=C(c1c[nH]c(C(F)(F)F)n1)N1CCc2c(cccc2-c2ccc(C(F)(F)F)cc2)C1` [O-0192, (2-(trifluoromethyl)-1H-imidazol-4-yl)(5-(4-(trifluoromethyl)phenyl)-3,4-dihydroisoquinolin-2(1H)-yl)methanone] stands more than 100 µM; under `CS(=O)(=O)c1nc(C(=O)N2CCc3c(cccc3-c3ccc(C(F)(F)F)cc3)C2)c[nH]1` [O-0193, (2-(methylsulfonyl)-1H-imidazol-4-yl)(5-(4-(trifluoromethyl)phenyl)-3,4-dihydroisoquinolin-2(1H)-yl)methanone], 10 to 100 µM; under `C[C@H](N)C(=O)N1CCc2c(cccc2-c2ccc(C(F)(F)F)cc2)C1` [O-0194, (S)-2-amino-1-(5-(4-(trifluoromethyl)phenyl)-3,4-dihydroisoquinolin-2(1H)-yl)propan-1-one], 0.001 to 10 µM. Take `C[C@H](NC(=O)OC(C)(C)C)C(=O)N1CCc2c(cccc2-c2ccc(C(F)(F)F)cc2)C1` [O-0195, tert-butyl (S)-(1-oxo-1-(5-(4-(trifluoromethyl)phenyl)-3,4-dihydroisoquinolin-2(1H)-yl)propan-2-yl)carbamate]: the IC50 was more than 100 µM. With `C[C@@H](NC(=O)OC(C)(C)C)C(=O)N1CCc2c(cccc2-c2ccc(C(F)(F)F)cc2)C1` [O-0196, tert-butyl (R)-(1-oxo-1-(5-(4-(trifluoromethyl)phenyl)-3,4-dihydroisoquinolin-2(1H)-yl)propan-2-yl)carbamate], the IC50 was more than 100 µM.

By IC50 is commonly meant the point on the concentration scale where inhibition reaches its midpoint.

These data come from patent US20250376445A1, “COMPOUNDS AND METHODS FOR YAP/TEAD MODULATION AND INDICATIONS THEREFOR” (OPNA BIO SA, priority 2023, published 2025).
